Measurements published in patent US20100056516A1 (priority 2006, published 2010).
Read-outs that look alike come from different tables or passages of the source.

Key:
[1] = tested on: HXB2 virus; assay: microbe, parasite or virus in culture; format: cell-based, HIV
In short: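 Single-cycle infectivity assay in HeLa P4-2 cells measuring inhibition of acute HIV infection, using HXB2 virus.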

[2] = biological target: HIV-1 reverse transcriptase (RNase H) (Human immunodeficiency virus type 1 group M subtype B, UniProt P04585); assay: ASH assay: RNase H mediated RNA cleavage (ECL format, BioVeris M384); format: biochemical
Experimental: Potency of a substance as an RNase H inhibitors can be determined by measuring its ability prevent RNase H catalyzed cleavage of the RNA strand in a RNA/DNA hybrid duplex substrate. RNase H activity is measured using a substrate generated by annealing the oligoribo-nucleotide 5′-rCrCrUrCrUrCrArArArArArCrArGrGrArGrCrArGrArArArGrArCrArArG (SEQ ID NO:1) to the oligodeoxyribonucleotide 5′-Biotin-[…] (SEQ ID NO:2). […] (SEQ ID NO:3). The resulting double-stranded duplex DNA product is quantitated in an ALPHA screen format using [streptavidin- and anti-fluorescein-coated beads (Packard Bioscience) following the manufacturer's guidelines and reading on a Fusion AlphaScreen instrument. Alternatively, the released 5′-Biotinylated DNA is annealed to a complementary oligodeoxyribonucleotide: 5′-ruthenium-[…] (SEQ ID NO:3). The resulting double-stranded duplex DNA product is quantitated in an ECL screen format using Dynabeads M280 coated with streptavidin (BioVeris Corporation) following the manufacturer's guidelines and reading on a BioVeris M384 Analyzer.

[3] = biological target: HIV integrase (Human immunodeficiency virus type 1 group M subtype B, UniProt P04585); assay: integrase strand transfer assay (STA); format: biochemical
[4] = tested on: HeLa P4-2 cell line; details: human
Description: The HeLa P4-2 cell line used in the single cycle HIV infectivity Assay B of Example 270 was also used to determine compound cytotoxicity in the absence of viral infection.

[5] = Human immunodeficiency virus 1, HXB2, HeLaP4-2, read-out: SCIA-B (IC50, μM)
[6] = Human immunodeficiency virus 1, HXB2, HeLaP4-2, read-out: antiviral IC50 (SCIA-B)
[7] = IC50 in the STA assay, integrase strand transfer
[8] = STA (IC50, μM), integrase strand-transfer assay, Example 269
[9] = RNase H mediated RNA cleavage assay, Example 269, read-out: ASH (IC50)
[10] = integrase strand transfer, read-out: IC50 in the STA assay
[11] = integrase strand-transfer assay, Example 269, read-out: STA (IC50)

Row | Structure (SMILES) | IC50 [1, 5] [µM] | IC50 [1, 6] [µM] | IC50 [2] [nM] | IC50 [3, 7] [µM] | IC50 [3, 8] [µM] | Cytotoxicity (LD50, μM) [4] [µM] | IC50 [2, 9] [nM] | IC50 [3, 10] [µM] | IC50 [3, 11] [µM]
1 | O=c1cc(NC2CCCc3ccccc32)c2cccnc2n1O (stereo not drawn) [Example 135, 1-hydroxy-4-(1,2,3,4-tetrahydronaphthalen-1-ylamino)-1,8-naphthyridin-2(1H)-one] | 0.5 | < 100 | 61 | < 50 | 0.19 | >100 | – | – | –
2 | O=c1cc(NCc2ccc(CN3CCOCC3)cc2)c2cccnc2n1O [Example 111, 1-Hydroxy-4-{[4-(morpholin-4-ylmethyl)benzyl]amino}-1,8-naphthyridin-2(1H)-one] | 0.12 | < 100 | 46 | < 50 | 1.8 | >100 | – | – | –
3 | O=c1cc(Nc2ccccc2N2CCOCC2)c2cccnc2n1O [Example 147, 1-hydroxy-4-{[2-(4-morpholinyl)phenyl]amino}-1,8-naphthyridin-2(1H-one)] | 0.2 | < 100 | 17 | < 50 | 0.22 | 7.7 | – | – | –
4 | O=c1cc(NC2CCN(c3ccccc3)CC2)c2cccnc2n1O [Example 154, 1-hydroxy-4-[(1-phenyl-4-piperidinyl)amino]-1,8-naphthyridin-2(1H-one)] | 0.27 | < 100 | 200 | < 50 | 1.7 | 7.2 | – | – | –
5 | CCOC(=O)c1c(O)c2cc(-c3cccc(CN4CCOCC4)c3)cnc2n(O)c1=O [Example 57, Ethyl 1,4-dihydroxy-6-[3-(morpholin-4-ylmethyl)phenyl]-2-oxo-1,2-dihydro-1,8-naphthyridine-3-carboxylate] | 0.1 | < 100 | – | – | – | 36 | 520 | < 50 | 0.069
6 | O=c1cc(NCc2cccc(CN3CCOCC3)c2)c2cccnc2n1O [Example 151, 1-hydroxy-4-{[3-(4-morpholinylmethyl)benzyl]amino}-1,8-naphthyridin-2(1H-one)] | 0.13 | < 100 | 160 | < 50 | 0.23 | 15 | – | – | –
7 | CCOC(=O)c1c(O)c2cc(C(=O)N(C)CCc3ccccc3)cnc2n(O)c1=O [Example 81, Ethyl 1,4-dihydroxy-6-{[methyl(2-phenylethyl)amino]carbonyl}-2-oxo-1,2-dihydro-1,8-naphthyridine-3-carboxylate] | 0.06 | < 100 | – | – | – | >100 | 270 | < 50 | 0.027
8 | COC(=O)c1ccc2c(c1)CCN(c1cc(=O)n(O)c3ncccc13)C2 [Example 121, 4-[6-(methoxycarbonyl)-3,4-dihydroisoquinolin-2(1H)-yl]-1-hydroxy-1,8-naphthyridin-2(1H)-one] | 0.26 | < 100 | 150 | < 50 | 0.6 | 16 | – | – | –
9 | O=c1cc(N2CCc3ccc(-c4cccnc4)cc3C2)c2cccnc2n1O [Example 255, 1-hydroxy-4-(7-pyridin-3-yl-3,4-dihydroisoquino1in-2(1H)-yl)-1,8-naphthyridin-2(1H)-one] | 0.17 | < 100 | 120 | < 50 | 1.8 | 5.1 | – | – | –
10 | NCc1ccc(-c2ccc3c(c2)CN(c2cc(=O)n(O)c4ncccc24)C3)cc1 [Example 257, 4-{5-[4-(aminomethyl)phenyl]-1,3-dihydro-2H-isoindol-2-yl}-1-hydroxy-1,8-naphthyridin-2(1H)-one] | 0.35 | < 100 | 33 | < 50 | 46 | 49 | – | – | –
11 | O=c1c(-c2ccccn2)c(O)c2cccnc2n1O [Example 27, 1,4-Dihydroxy-3-pyridin-2-yl-1,8-naphthyridin-2(1B)-one] | 0.5 | < 100 | 100 | < 50 | 0.06 | 6.2 | – | – | –
12 | COc1ccccc1CNc1cc(=O)n(O)c2ncccc12 [Example 142, 1-hydroxy-4-[(2-methoxybenzyl)amino]-1,8-naphthyridin-2(1H-one)] | 0.09 | < 100 | 84 | < 50 | 0.56 | 4.4 | – | – | –
13 | O=c1cc(NCc2cccc(N3CCOCC3)n2)c2cccnc2n1O [Example 115, 1-hydroxy-4-{[(6-morpholin-4-ylpyridin-2-yl)methyl]amino}-1,8-naphthyridin-2(1H)-one] | 0.11 | < 100 | 180 | < 50 | 1.9 | 8.6 | – | – | –
14 | CCOC(=O)c1c(O)c2c(-c3cccc(CN(C)C)c3)ccnc2n(O)c1=O [Example 230, ethyl 5-{3-[(dimethylamino)methyl]phenyl}-1,4-dihydroxy-2-oxo-1,2-dihydro-1,8-naphthyridine-3-carboxylate] | 0.77 | < 100 | – | – | – | >100 | 110 | < 50 | 2.3
15 | CCOC(=O)c1c(O)c2cc(-c3cccc(O)c3)cnc2n(O)c1=O [Example 59, Ethyl 1,4-dihydroxy-6-(3-hydroxyphenyl)-2-oxo-1,2-dihydro-1,8-naphthyridine-3-carboxylate] | 0.05 | < 100 | – | – | – | 20 | 150 | < 50 | 0.022
16 | NCc1ccc(-c2ccc(Cc3cc(=O)n(O)c4ncccc34)cc2)cc1 [Example 235, 4-{[4′-(aminomethyl)biphenyl-4-yl]methyl}-1-hydroxy-1,8-naphthyridin-2(1H)-one] | 0.13 | < 100 | 46 | > 50 | > 50 | 7.8 | – | – | –
17 | CCOC(=O)c1ccnc2c1c(-c1ccc(-c3ccc(CN)cc3)cc1)cc(=O)n2O [Example 241, Ethyl 5-[4′-(aminomethyl)biphenyl-4-yl]-8-hydroxy-7-oxo-7,8-dihydro-1,8-naphthyridine-4-carboxylate] | 0.32 | < 100 | – | – | – | 3.8 | 290 | < 50 | 6.2
18 | CCOC(=O)c1c(O)c2c(-c3ccccc3)ccnc2n(O)c1=O [Example 4, Ethyl 1,4-dihydroxy-2-oxo-5-phenyl-1,2-dihydro-1,8-naphthylidine-3-carboxylate] | 0.53 | < 100 | 260 | < 50 | 0.24 | 50 | – | – | –
19 | COc1cccc(-c2c(O)c3cccnc3n(O)c2=O)c1 [Example 40, 1,4-Dihydroxy-3-(3-methoxyphenyl)-1,8-naphthyridin-2(1H)-one] | 0.67 | < 100 | – | – | – | >100 | 110 | < 50 | 0.62
20 | O=c1cc(Cc2ccc(CCc3ccc(F)cc3F)cc2)c2cccnc2n1O [Example 236, 4-{4-[2-(2,4-difluorophenyl)ethyl]benzyl}-1-hydroxy-1,8-naphthyridin-2(1H)-one] | 0.26 | < 100 | 120 | < 50 | 0.05 | 21 | – | – | –
21 | O=c1c(-c2cccc(Cl)c2)c(O)c2cccnc2n1O [Example 33, 3-(3-Chlorophenyl)-1,4-dihydroxy-1,8-naphthyridin-2(1H)-one] | 0.66 | < 100 | – | – | – | >100 | 47 | < 50 | 0.18
22 | O=c1cc(NCc2ccc(F)cc2)c2cccnc2n1O [Example 152] | – | < 100 | – | – | – | – | – | < 50 | –
23 | NCc1cccc(-c2cccc(-c3ccnc4c3c(O)cc(=O)n4O)c2)c1 [Example 227, 5-[3′-(aminomethyl)biphenyl-3-yl]-1,4-dihydroxy-1,8-naphthyridin-2-(1H)-one] | – | < 100 | – | – | – | – | – | < 50 | –
24 | O=C(c1cc(=O)n(O)c2ncccc12)N1CCc2ccccc2C1 [Example 247, 4-(3,4-dihydroisoquinolin-2(1H)-ylcarbonyl)-1-hydroxy-1,8-naphthyridin-2(1H)-one] | – | < 100 | – | – | – | – | – | < 50 | –
